One experiment deals with T1, Dopamine β-Hydroxylase (Bos taurus, UniProt P15101).
T1 sequence (P15101 1-610): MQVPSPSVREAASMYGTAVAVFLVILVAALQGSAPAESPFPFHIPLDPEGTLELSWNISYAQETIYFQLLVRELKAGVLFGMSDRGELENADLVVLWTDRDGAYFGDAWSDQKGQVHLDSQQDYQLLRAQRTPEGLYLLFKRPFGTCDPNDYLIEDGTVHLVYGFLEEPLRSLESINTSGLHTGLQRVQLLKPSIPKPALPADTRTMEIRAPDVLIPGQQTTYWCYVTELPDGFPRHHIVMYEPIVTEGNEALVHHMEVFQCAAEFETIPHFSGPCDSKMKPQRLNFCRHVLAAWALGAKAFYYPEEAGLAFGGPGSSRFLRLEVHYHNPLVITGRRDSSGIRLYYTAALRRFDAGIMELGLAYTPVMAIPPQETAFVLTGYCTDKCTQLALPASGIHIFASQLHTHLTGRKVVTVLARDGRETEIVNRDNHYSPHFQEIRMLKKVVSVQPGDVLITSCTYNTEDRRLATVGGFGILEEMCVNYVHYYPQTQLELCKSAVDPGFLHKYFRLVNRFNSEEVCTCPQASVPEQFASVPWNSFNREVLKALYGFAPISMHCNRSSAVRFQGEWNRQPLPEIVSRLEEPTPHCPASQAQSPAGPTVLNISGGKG
The experiment in a line: Inhibition of dopamine β-hydroxylase (DH). The class given is biochemical. To be noted: 200 mcg/cc. From the text: (§1) The new compounds of the present invention have been examined for their biological activities, and their inhibition to tyrosine hydroxylase and dopamine β-hydroxylase are summarized below in Table 2. The details of the test methods used and the close relationship and reliable correlation of biological activities between in vitro and in vivo test results are well documented in the literature, e.g. J. Antibiot. 23: 514 (1970); Biochem. Pharmacol., 19: 35 (1970); and J. Am. Chem. Soc. 93: 1285 (1971). […] The effects of this compound on tyrosine hydroxylase and dopamine β-hydroxylase were also tested by the methods described in the Journal of Antibiotics 23:514 (1970) and Biochem. Pharmacol. 19:35 (1970), respectively.
(§2) The chemical structure of the products [I], solvent for hydrogenation and solvent for recrystallization are summarised in Table 1, and the yields of the products [I] are also shown in Table 1 together with their melting points, elemental analysis data, Inhibition (%) of tyrosine hydroxylase (TH) and Inhibition (%) to dopamine β-hydroxylase (DH) at different concentrations of the products [I] of 100 mcg/cc and 200 mcg/cc.

Another experiment addresses T2, Tyrosine Hydroxylase (Bos taurus, UniProt P17289).
T2 sequence (P17289 1-491): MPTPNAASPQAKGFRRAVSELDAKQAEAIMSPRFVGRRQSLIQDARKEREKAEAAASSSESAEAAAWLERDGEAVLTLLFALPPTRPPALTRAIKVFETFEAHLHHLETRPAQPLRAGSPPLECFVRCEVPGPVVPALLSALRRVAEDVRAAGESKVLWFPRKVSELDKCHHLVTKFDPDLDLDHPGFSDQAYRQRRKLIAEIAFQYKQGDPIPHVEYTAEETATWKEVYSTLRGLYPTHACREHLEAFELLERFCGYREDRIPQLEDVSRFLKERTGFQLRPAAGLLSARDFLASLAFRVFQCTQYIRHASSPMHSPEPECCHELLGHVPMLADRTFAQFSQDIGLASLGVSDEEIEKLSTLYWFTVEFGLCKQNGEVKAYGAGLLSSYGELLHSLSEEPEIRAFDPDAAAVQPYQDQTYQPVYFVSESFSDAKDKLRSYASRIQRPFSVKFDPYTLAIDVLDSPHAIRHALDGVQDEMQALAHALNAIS
Kind of experiment: Inhibition of tyrosine hydroxylase (TH). The class given is biochemical. To be noted: for inhibition at 100 µg/mL: 100 mcg/cc; for inhibition at 200 µg/mL: 200 mcg/cc.
From the text: as §1, §2

Structures are written as SMILES.

`COc1ccc(CCC(=O)C2C(=O)C=C(C)OC2=O)cc1` (centres unmarked) [Example 1, 3-(4-methoxyhydrocinnamoyl)-6-methyl-2H-pyran-2,4(3H)-dione] gave an inhibition at 200 µg/mL against Dopamine β-Hydroxylase of 35%. At Tyrosine Hydroxylase, this molecule showed an inhibition at 100 µg/mL of 40.7% and an inhibition at 200 µg/mL of 47.9%.
Taken in the same sequence, the figures for `COc1ccc(CCC(=O)C2C(=O)C=C(C)OC2=O)cc1O` (centres unmarked) [Example 2, 3-(3-hydroxy-4-methoxyhydrocinnamoyl)-6-methyl-2H-pyran-2,4(3H)-dione] were 67%, 80.8% and 93.9%.
As for `CC1=CC(=O)C(C(=O)CCc2ccc3c(c2)OCO3)C(=O)O1` (centres unmarked) [Example 3, 3-(3,4-methylenedioxyhydrocinnamoyl)-6-methyl-2H-pyran-2,4(3H)-dione], testing at 200 µg/mL against Dopamine β-Hydroxylase gave an inhibition of 86.7%. Also, on Tyrosine Hydroxylase, the inhibition at 100 µg/mL is 13.7% and 200 µg/mL produced 18.5% inhibition.
The molecule `CC1=CC(=O)C(C(=O)CCc2cccc(O)c2)C(=O)O1` (centres unmarked) [Example 4] returned an inhibition at 200 µg/mL at Dopamine β-Hydroxylase of 81.7%. For the same molecule, at Tyrosine Hydroxylase, the inhibition at 100 µg/mL stood at 64.7% and 200 µg/mL produced 67.2% inhibition.
The molecule `CC1=CC(=O)C(C(=O)CCc2ccc(Cl)cc2)C(=O)O1` (centres unmarked) [Example 5] displayed an inhibition at 200 µg/mL against Dopamine β-Hydroxylase of 84.4%. On Tyrosine Hydroxylase, 100 µg/mL produced 66% inhibition and the inhibition at 200 µg/mL came out at 64.8%.
Taken in the same sequence, the figures for `CC1=CC(=O)C(C(=O)CCc2ccc(Cl)c(Cl)c2)C(=O)O1` (centres unmarked) [Example 6] were 90.4%, 54.6% and 61%.
Taken in the same sequence, the figures for `CC1=CC(=O)C(C(=O)CCc2ccc(O)cc2)C(=O)O1` (centres unmarked) [Example 7] were 77.7%, 65.2% and 70.6%.
Taken in the same sequence, the figures for `CC1=CC(=O)C(C(=O)CCc2ccc(C#N)cc2)C(=O)O1` (centres unmarked) [Example 8] were 77.5%, 81.4% and 84.5%.
At Dopamine β-Hydroxylase, `CC1=CC(=O)C(C(=O)CCc2ccc(O)c(O)c2)C(=O)O1` (centres unmarked) [Example 9] yielded an inhibition at 200 µg/mL of 20.6%. At Tyrosine Hydroxylase, at 100 µg/mL the inhibition was 80.6% and the inhibition at 200 µg/mL turned out to be 93.5%.
In the case of `CC1=CC(=O)C(C(=O)CCc2cccc(Cl)c2)C(=O)O1` (centres unmarked) [Example 10], testing at 200 µg/mL at Dopamine β-Hydroxylase gave an inhibition of 95%. In addition, on Tyrosine Hydroxylase, the inhibition at 100 µg/mL is 12.7% and the inhibition at 200 µg/mL was determined as 26.5%.
Consider `CCOc1ccc(CCC(=O)C2C(=O)C=C(C)OC2=O)cc1` (centres unmarked) [Example 11], for which the values for the inhibition at 200 µg/mL against Dopamine β-Hydroxylase and against Tyrosine Hydroxylase were 6% and 10.1%, respectively.
On to `CC1=CC(=O)C(C(=O)CCCCc2ccccc2)C(=O)O1` (centres unmarked) [Example 12], for which, at Dopamine β-Hydroxylase, 200 µg/mL produced 85.8% inhibition. The molecule also displayed an inhibition at 100 µg/mL on Tyrosine Hydroxylase of 33.7%.
With `CC1=CC(=O)C(C(=O)CCc2ccccc2O)C(=O)O1` (centres unmarked) [Example 13], the inhibition at 200 µg/mL against Dopamine β-Hydroxylase worked out at 52.5%. On Tyrosine Hydroxylase, this molecule came in with an inhibition at 100 µg/mL of 44.4% and an inhibition at 200 µg/mL of 59.5%.
Turning to `COC(=O)c1ccc(CCC(=O)C2C(=O)C=C(C)OC2=O)cc1` (centres unmarked) [Example 14, 3-(4-methoxycarbonylhydrocinnamoyl)-6-methyl-2H-pyran-2,4(3H)-dione], testing at 200 µg/mL against Dopamine β-Hydroxylase gave an inhibition of 54.9%. For the same molecule, on Tyrosine Hydroxylase, testing at 100 µg/mL gave an inhibition of 13% and the inhibition at 200 µg/mL was determined as 15%.
Regarding `COc1cccc(CCC(=O)C2C(=O)C=C(C)OC2=O)c1O` (centres unmarked) [Example 15], at Tyrosine Hydroxylase, testing at 100 µg/mL gave an inhibition of 20.9% and the inhibition at 200 µg/mL was 29.9%.
Taken in the same sequence, the figures for `CC1=CC(=O)C(C(=O)CCc2ccc(N(C)C)cc2)C(=O)O1` (centres unmarked) [Example 16] were 23% and 26.1%.
As to `CC1=CC(=O)C(C(=O)CCc2ccccc2Cl)C(=O)O1` (centres unmarked) [Example 17], the inhibition at 200 µg/mL against Dopamine β-Hydroxylase stood at 89.8%. Further, at Tyrosine Hydroxylase, at 100 µg/mL the inhibition was 37.1% and the inhibition at 200 µg/mL was determined as 48.4%.
The molecule `COc1ccccc1CCC(=O)C1C(=O)C=C(C)OC1=O` (centres unmarked) [Example 18] came in with an inhibition at 200 µg/mL against Dopamine β-Hydroxylase of 98.3%. This molecule also showed an inhibition at 100 µg/mL against Tyrosine Hydroxylase of 32%.
`COc1cc(CCC(=O)C2C(=O)C=C(C)OC2=O)ccc1O` (centres unmarked) [Example 19] registered an inhibition at 200 µg/mL on Dopamine β-Hydroxylase of 29.6%. In addition, at Tyrosine Hydroxylase, the inhibition at 100 µg/mL was found to be 14.6% and 200 µg/mL produced 26% inhibition.
Taken in the same sequence, the figures for `CC1=CC(=O)C(C(=O)CCc2ccc(C(C)C)cc2)C(=O)O1` (centres unmarked) [Example 20] were 94.5%, 16.8% and 25.5%.
Consider `COc1cccc(CCC(=O)C2C(=O)C=C(C)OC2=O)c1OC` (centres unmarked) [Example 21], for which at 200 µg/mL the inhibition at Dopamine β-Hydroxylase was 74.7%. Moreover, the inhibition at 100 µg/mL at Tyrosine Hydroxylase worked out at 39%.
With `CCOc1cc(CCC(=O)C2C(=O)C=C(C)OC2=O)ccc1O` (centres unmarked) [Example 22], on Dopamine β-Hydroxylase, the inhibition at 200 µg/mL is 61.5%. On Tyrosine Hydroxylase, this molecule had an inhibition at 100 µg/mL of 22.7% and an inhibition at 200 µg/mL of 24.4%.
In turn, `CC1=CC(=O)C(C(=O)CCc2c(C)cc(C)cc2C)C(=O)O1` (centres unmarked) [Example 23] came in with an inhibition at 200 µg/mL against Dopamine β-Hydroxylase of 28.9%. Moreover, on Tyrosine Hydroxylase, the inhibition at 100 µg/mL turned out to be 8.7%.
Turning to `CC1=CC(=O)C(C(=O)CCc2ccco2)C(=O)O1` (centres unmarked) [Example 24, 3-[3-(2-furyl)propanoyl]-6-methyl-2H-pyran-2,4(3H)-dione], the inhibition at 200 µg/mL against Dopamine β-Hydroxylase was found to be 60.3%; against Tyrosine Hydroxylase it was 45.5%. The molecule further gave an inhibition at 100 µg/mL on Tyrosine Hydroxylase of 44.7%.
Taken in the same sequence, the figures for `COc1cccc(CCC(=O)C2C(=O)C=C(C)OC2=O)c1` (centres unmarked) [Example 25] were 83.5%, 34.9% and 32%.
As to `CC1=CC(=O)C(C(=O)CCc2cccc(Br)c2)C(=O)O1` (centres unmarked) [Example 26], the inhibition at 200 µg/mL against Dopamine β-Hydroxylase came to 97%; against Tyrosine Hydroxylase it was 19.8%. This molecule also registered an inhibition at 100 µg/mL on Tyrosine Hydroxylase of 11.3%.
Turning to `COc1ccc(CCC(=O)C2C(=O)C=C(C)OC2=O)c(OC)c1` (centres unmarked) [Example 27], the inhibition at 200 µg/mL on Dopamine β-Hydroxylase stood at 44.9%. Besides, at Tyrosine Hydroxylase, testing at 100 µg/mL gave an inhibition of 20% and the inhibition at 200 µg/mL is 26%.
Taken in the same sequence, the figures for `CC1=CC(=O)C(C(=O)CCc2ccc(Cl)cc2Cl)C(=O)O1` (centres unmarked) [Example 28] were 100%, 29.8% and 29.1%.
At Dopamine β-Hydroxylase, `CC1=CC(=O)C(C(=O)CCc2ccc(C)cc2)C(=O)O1` (centres unmarked) [Example 29, 3-(4-methylhydrocinnamoyl)-6-methyl-2H-pyran-2,4(3H)-dione] gave an inhibition at 200 µg/mL of 85%. On Tyrosine Hydroxylase, this molecule yielded an inhibition at 100 µg/mL of 52.5% and an inhibition at 200 µg/mL of 52.6%.
The molecule `CC1=CC(=O)C(C(=O)CCc2ccc(C)o2)C(=O)O1` (centres unmarked) [Example 30] registered an inhibition at 200 µg/mL on Dopamine β-Hydroxylase of 100%. Further, the inhibition at 100 µg/mL against Tyrosine Hydroxylase was determined as 23.5%.
Taken in the same sequence, the figures for `CC1=CC(=O)C(C(=O)CCc2ccc(F)cc2)C(=O)O1` (centres unmarked) [Example 31] were 42% and 60.1%.
Taken in the same sequence, the figures for `CC1=CC(=O)C(C(=O)CCc2ccc(C(F)(F)F)cc2)C(=O)O1` (centres unmarked) [Example 32] were 88% and 50.4%.
Taken in the same sequence, the figures for `CC1=CC(=O)C(C(=O)CCc2ccc(C(N)=O)cc2)C(=O)O1` (centres unmarked) [Example 33] were 30.3% and 20.5%.
On Dopamine β-Hydroxylase, `CC1=CC(=O)C(C(=O)CCc2cc(Cl)cc(Cl)c2O)C(=O)O1` (centres unmarked) [Example 34] had an inhibition at 200 µg/mL of 82.3%. On Tyrosine Hydroxylase, this molecule gave an inhibition at 100 µg/mL of 53.6% and an inhibition at 200 µg/mL of 69.3%.
`COc1cc(CCC(=O)C2C(=O)C=C(C)OC2=O)cc(OC)c1O` (centres unmarked) [Example 35] returned an inhibition at 200 µg/mL on Dopamine β-Hydroxylase of 43.6%. This molecule came in with an inhibition at 100 µg/mL against Tyrosine Hydroxylase of 45.8%.
Taken in the same sequence, the figures for `CC1=CC(=O)C(C(=O)CCc2cccc3ccccc23)C(=O)O1` (centres unmarked) [Example 36] were 56.2% and 34.8%.

The values are drawn from patent US3963756A, “Derivatives of 6-methyl-2H-pyran-2,4(3H)-dione” (Zaidan Hojin Biseibutsu Kagaku Kenkyu Kai, priority 1972, dated 1976).
